From patent US20100210561A1, “USE OF PEPTIDE AS A THERAPEUTIC AGENT” (priority 2007, published 2010)
Where no end group is shown, it is not given here. [ ]: non-standard residue; d: D form. The star is where a group is joined. tBu = CC(C)(C)*

What was measured:
[1] = system: HIV-1IIIB; experiment: HIV-1 antiviral assay in CEM-SS cells (MTS readout); conditions: positive controls
[2] = system: HCMV strain AD169; experiment: HCMV plaque formation assay in MRC-5 cells; type: cell-based, human cytomegalovirus; conditions: 10 micrograms per ml, 7-10 days
[3] = system: HUVEC; experiment: Endothelial tube formation assay; type: cell-based, human; conditions: 10 micrograms per ml, 20 hours
Experimental: The endothelial tube formation assay is based on the ability of endothelial cells to form three-dimensional capillary-like tubular structures when cultured on a gel of basement membrane extract. […] Positive control was vehicle only. The endothelial cells were allowed to form tubes foe 20 hours and were then examined under an inverted fluorescent microscope. Duplicate wells for each treatment were photographed and quantitatevily analyzed for an average tubule length using image analysis software ImageProPlus. Raw data were expressed as average tubule lengths in pixels±standard deviation. Statistic p values were computed using the Student's t-test.

[4] = system: Interleukin-4 (IL-4); experiment: Th1/Th2 cytokine profiling assay: IL-4; type: cell-based, Balb/c mice; conditions: Ovalbumin-restimulated spleen cells, 72 hours
[5] = system: Interleukin-2 (IL-2); experiment: Th1/Th2 cytokine profiling assay: IL-2; type: cell-based, Balb/c mice; conditions: Ovalbumin-restimulated spleen cells, 72 hours
[6] = system: Tumor Necrosis Factor-α (TNF-α); experiment: Th1/Th2 cytokine profiling assay: TNF-α; type: cell-based, Balb/c mice; conditions: Ovalbumin-restimulated spleen cells, 72 hours
[7] = system: hepatitis B virus (HBV) ayw strain; experiment: HBV assay in HepG2-2.2.15 cells (secreted HBV DNA, TaqMan PCR); type: cell-based; conditions: 10 micrograms per ml, six days, HBV DNA in supernatant
[8] = system: Interferon-γ (IFN-γ); experiment: Th1/Th2 cytokine profiling assay: IFN-γ; type: cell-based, Balb/c mice; conditions: Ovalbumin-restimulated spleen cells, 72 hours

Row | Compound | antiviral activity of positive control compounds [1] | inhibition of HCMV plaque formation as compared to the virus control experiment [2] [%] | inhibition of the tube formation of human endothelial cells [3] [%] | IL-4 spleen cells; TH2 response (% of control) [4] | decrease of the production of IL-4 in murine spleen cells [4] [%] | IL-2 spleen cells (% of control) [5] | induction of the production of IL-2 in murine spleen cells [5] | TNF-a spleen cells; TH1 response (% of control) [6] | induction of the production of TNF-alpha in murine spleen cells [6] [%] | inhibition of HBV replication as compared to the virus control infection [7] [%] | IFNγ spleen cells; TH1 response (% of control) [8] | induction of the production of IFN-γ in murine spleen cells [8]
1 | Cc1cn([C@H]2C[C@H](N=[N+]=[N-])[C@@H](CO)O2)c(=O)[nH]c1=O [AZT] | expected levels of antiviral activity |  |  |  |  |  |  |  |  |  |  | 
2 | CC(C)(C)NC(=O)[C@@H]1CN(Cc2cccnc2)CCN1C[C@@H](O)C[C@@H](Cc1ccccc1)C(=O)N[C@H]1c2ccccc2C[C@H]1O [indinavir] | expected levels of antiviral activity |  |  |  |  |  |  |  |  |  |  | 
3 | Y[dC](tBu)GFLT(tBu)-OH [Peptide 1] |  | 46.5 | 4 | 65.0 % of control | 35.0 | 115.0 % of control | did not significantly change | 123.7 % of control | 23.7 | 24.2 | 107.6 % of control | did not significantly change
